Assay [1] relates to recombinant NMDAr comprised of either GluN1a–GluN2A or GluN1a–GluN2B subunits. The class given is cell-based.
Assay [2] has as its system GluN1a–GluN2A. It counts as cell-based.
For assay [3], the system named is NMDA-evoked currents in cultured rat embryonic hippocampal neurons (NMDAr). Particulars: for IC50: pH 7.4.
Assay [4] has as its system GluN1a–GluN2B. It counts as cell-based.

Where a SMILES comes first, the peptide text is derived from it.

For `CC[C@H](C)[C@H](NC(=O)[C@H](CC(C)C)NC(=O)[C@H](CC(=O)O)NC(=O)[C@H](CCC(N)=O)NC(=O)[C@H](CC(N)=O)NC(=O)[C@H](CC(=O)O)NC(=O)[C@H](CCC(N)=O)NC(=O)[C@H](CC(C)C)NC(=O)[C@H](CC(=O)O)NC(=O)[C@H](CC(=O)O)NC(=O)[C@H](CCC(=O)O)NC(=O)CN)C(=O)N[C@@H](CCCNC(=N)N)C(=O)N[C@@H](CC(=O)O)C(=O)N[C@@H](CCCCN)C(=O)N[C@@H](CO)C(=O)N[C@@H](CC(N)=O)C(=O)O` [EAR16] (H-GEDDLQDNQDLIRDKSN-OH), in assay [1], the “difference between control-NMDA and wash-NMDA (reversibility)” value is reported as “No significant difference”; the “off rate (from short-lived current increase on simultaneous removal of NMDA + peptide)” value is “fast enough that would allow binding of NMDA early on during washout”; the “reversibility, recombinant NMDAr versus neuronal NMDAr” value was “faster from the recombinant NMDAr than from NMDAr expressed in neuronal cells”. In addition, the “block of NMDA-evoked currents, GluN1a–GluN2A” value in assay [2] was 50%. Further, in assay [3], the “dose dependence of inhibition” value is recorded as “dose-dependent”, the “off rate (from transient current increase on simultaneous removal of NMDA + peptide)” value is recorded as “fast enough that would allow binding of NMDA early on during washout”, the reversibility of block entry is “highly reversible” and the use-dependence of block entry was “no clear use-dependence”. Besides, in assay [3], the concentration for half-maximal inhibition (IC50) (as a rule, the midpoint of a concentration-inhibition curve) stood at 241 µM. Further, the “block of NMDA-evoked currents, GluN1a–GluN2B” value in assay [4] is recorded as 84%.
On to `CC[C@H](C)[C@H](NC(=O)[C@H](CC(C)C)NC(=O)[C@H](CC(=O)O)NC(=O)[C@H](CCC(N)=O)NC(=O)[C@H](C)NC(=O)[C@H](CC(=O)O)NC(=O)[C@H](CCC(N)=O)NC(=O)[C@H](Cc1ccc(O)cc1)NC(=O)[C@H](CC(=O)O)NC(=O)[C@H](CC(=O)O)NC(=O)[C@H](CCC(=O)O)NC(=O)CN)C(=O)N[C@@H](CCCNC(=N)N)C(=O)N[C@@H](CC(=O)O)C(=O)N[C@@H](CCCCN)C(=O)N[C@@H](CO)C(=O)N[C@@H](CC(N)=O)C(=O)O` [EAR18] (H-GEDDYQDAQDLIRDKSN-OH), for which inhibition in assay [3] was half-maximal at 176 µM (IC50).

These data come from paper PMC5433008 (BMC Neuroscience, 2017).
